# Earlier results, collected in patent US20250231185A1, “Coronavirus T Cell Epitopes, Megapools and Uses Thereof” (La Jolla Institute for Immunology, priority 2021, published 2025).
# Tested on: CD8+ T cells
# Conditions: T cell type (CD4 or CD8) recognizing the SARS-CoV-2 epitope; cited from earlier work
row,Substance,Restriction
1,933 (FVENPDILRV) [compound 933],CD8
2,934 (VENPDILRV) [compound 934],CD8
3,935 (VENPDILRVY) [compound 935],CD8
4,936 (VRQALLKTV) [compound 936],CD8
5,937 (DAMRNAGIV) [compound 937],CD8
6,938 (SLLMPILTL) [compound 938],CD8
7,941 (HVDTDLTKPY) [compound 941],CD8
8,942 (KPYIKWDLL) [compound 942],CD8
9,946 (STVFPPTSF) [compound 946],CD8
10,947 (FPPTSFGPL) [compound 947],CD8
11,948 (TSFGPLVRK) [compound 948],CD8
12,949 (SFGPLVRKI) [compound 949],CD8
13,950 (KIFVDGVPFV) [compound 950],CD8
14,952 (FVVSTGYHFR) [compound 952],CD8
15,953 (VVSTGYHFR) [compound 953],CD8
16,954 (NLHSSRLSF) [compound 954],CD8
17,955 (QTVKPGNFNK) [compound 955],CD8
18,957 (FAVSKGFFK) [compound 957],CD8
19,958 (AAISDYDYYR) [compound 958],CD8
20,959 (AAISDYDYY) [compound 959],CD8
21,960 (AISDYDYYR) [compound 960],CD8

row,Substance,Restriction
1,962 (YRYNLPTMC) [compound 962],CD8
2,963 (YRYNLPTM) [compound 963],CD8
3,965 (FVVEVVDKY) [compound 965],CD8
4,967 (KSAGFPFNKW) [compound 967],CD8
5,968 (KSAGFPFNK) [compound 968],CD8
6,969 (ARLYYDSMSY) [compound 969],CD8
7,971 (FAYTKRNVI) [compound 971],CD8
8,972 (NVIPTITQM) [compound 972],CD8
9,973 (IPTITQMNL) [compound 973],CD8
10,974 (TITQMNLKY) [compound 974],CD8
11,975 (YAISAKNRAR) [compound 975],CD8
12,976 (SAKNRARTV) [compound 976],CD8
13,977 (SICSTMTNR) [compound 977],CD8
14,978 (IAATRGATV) [compound 978],CD8
15,979 (ATVVIGTSK) [compound 979],CD8
16,981 (VENPHLMGWD) [compound 981],CD8
17,982 (MPNMLRIMASL) [compound 982],CD8
18,983 (NMLRIMASL) [compound 983],CD8
19,984 (MLRIMASL) [compound 984],CD8
20,985 (LRIMASLVL) [compound 985],CD8
21,986 (IMASLVLAR) [compound 986],CD8

row,Substance,Restriction
1,987 (MASLVLARK) [compound 987],CD8
2,988 (RLANECAQV) [compound 988],CD8
3,990 (TSSGDATTAY) [compound 990],CD8
4,991 (VRNLQHRLY) [compound 991],CD8
5,993 (FVNEFYAYLR) [compound 993],CD8
6,994 (FVNEFYAYL) [compound 994],CD8
7,996 (YAYLRKHF) [compound 996],CD8
8,997 (LRKHFSMMI) [compound 997],CD8
9,999 (LYYQNNVFM) [compound 999],CD8
10,1001 (LVKQGDDYVY) [compound 1001],CD8
11,1002 (KQGDDYVYL) [compound 1002],CD8
12,1004 (VYLPYPDPSRI) [compound 1004],CD8
13,1005 (YLPYPDPSRI) [compound 1005],CD8
14,1006 (YLPYPDPSRIL) [compound 1006],CD8
15,1007 (LPYPDPSRIL) [compound 1007],CD8
16,1010 (QEYADVFHLY) [compound 1010],CD8
17,1011 (YADVFHLYL) [compound 1011],CD8
18,1013 (LTNDNTSRYW) [compound 1013],CD8
19,1014 (NTSRYWEPEFY) [compound 1014],CD8
